According to paper PMC11067372, “Evaluation of the antiplasmodial efficacy of synthetic 2,5-diphenyloxazole analogs of compounds naturally derived from Oxytropis lanata” (International Journal for Parasitology: Drugs and Drug …, 2024):
Read-outs that look alike come from different tables or passages of the source.

How the values were obtained:
P. falciparum K1 = test: In vitro inhibition of P. falciparum K1 (SYBR Green I-based fluorescence assay); assay type: cell-based; settings: Plasmodium falciparum; multidrug-resistant strain K1; 72 h incubation; average ± SD, three independent experiments; read-out: IC50 P. falciparum K1
Method: (§1) The cultures were maintained in an incubator under specific conditions: 37 °C under 5% CO2 and 5% O2.
(§2) The D-sorbitol method (CAS: 50-70-4, Wako, Osaka, Japan) was employed to synchronize parasites, resulting in the attainment of ≥90% ring-stage parasites. These synchronized parasites were then utilized for the experiments within a 2-h window. The assay was performed as follows. First, 50 μL of synchronized parasites with 0.5% parasitemia and 2% hematocrit were added to individual wells of a 96-well plate. Then, 50 μL of the test compounds was introduced to each well. […] Wells containing only test compounds and erythrocytes were included for background correction. […] After the designated incubation time, 100 μL of lysis buffer containing 0.02% (v/v) SYBR Green I was added to each well, the contents of the well were mixed by pipetting, and the plate was incubated in the dark at room temperature for 2 h. […] This assay was repeated four times at each concentration, and the resulting inhibitory values represent the average from three independent trials.
(§3) The IC50 or CC50 values were determined from three independent experiments by plotting the logarithmic concentration of the compound against the percent parasite inhibition or cell growth inhibition, respectively. Nonlinear regression analysis was conducted using GraphPad Prism 10 (GraphPad Software, Inc., La Jolla, CA, USA). Comparisons between groups were evaluated using either one-way or two-way ANOVA followed by Tukey's or Fisher's multiple comparisons tests. […] The meaning of each symbol is specified in the corresponding figure legend alongside the name of the employed test.

P. falciparum 3D7 = test: In vitro inhibition of P. falciparum 3D7 (SYBR Green I-based fluorescence assay); assay type: cell-based, Plasmodium falciparum; set-up: logIC50: unit not given here; settings: for IC50: Plasmodium falciparum; for logIC50: base-10 log-transformed IC50 against P. falciparum 3D7
Method: as §1, §2, §3

[1] = In vitro toxicity to human cells (cell viability assay); assay type: cell-based; settings: human foreskin fibroblasts (HFFs), average ± SD, three independent experiments
Method: HFF cells are selected for cytotoxicity testing in this study, providing a physiologically relevant model for the evaluation of drug interactions with human cells. […] This designation makes them a suitable model for the investigation of cellular processes and their sensitivity to toxic substances, which is crucial for the early identification of potential adverse effects of drugs during the development process.
The IC50 or CC50 values were determined from three independent experiments by plotting the logarithmic concentration of the compound against the percent parasite inhibition or cell growth inhibition, respectively. Nonlinear regression analysis was conducted using GraphPad Prism 10 (GraphPad Software, Inc., La Jolla, CA, USA). Comparisons between groups were evaluated using either one-way or two-way ANOVA followed by Tukey's or Fisher's multiple comparisons tests. A p-value of <0.05 was considered to indicate statistical significance and is denoted by an asterisk or a symbol. The meaning of each symbol is specified in the corresponding figure legend alongside the name of the employed test.

[2] = Table S2, P. falciparum 3D7, value used for SAR analysis, read-out: IC50
[3] = chloroquine-sensitive strain 3D7, 72 h incubation, average ± SD, three independent experiments, read-out: IC50 P. falciparum 3D7
[4] = 3D7, Table S1, average of three independent experiments, read-out: IC50 Mean against P. falciparum 3D7

Row | Compound | IC50 (P. falciparum K1) | IC50 (P. falciparum 3D7; [2]) | IC50 (P. falciparum 3D7; [3]) | logIC50 (P. falciparum 3D7; Table S2) | CC50 [1] | IC50 (P. falciparum 3D7; [4])
1 | Oc1ccccc1-c1cnc(-c2cccc(O)c2O)o1 [Compound 1, 2-(2′,3′-dihydroxyphenyl)-5-(2″-hydroxyphenyl)oxazole] | 6.17 ± 3.33 µM | 11 µM | 11 ± 2.69 µM | 1.042 | 59.6 ± 4.84 µM | 
2 | COc1ccccc1-c1cnc(-c2cccc(OC)c2OC)o1 [Compound 2] |  |  |  | 2.301 |  | > 200 µM
3 | CC(=O)Oc1ccccc1-c1cnc(-c2cccc(OC(C)=O)c2OC(C)=O)o1 [Compound 3] | 4.7 ± 2.24 µM | 9.22 µM | 9.22 ± 1.68 µM | 0.9649 | 126 ± 31.6 µM | 
4 | Oc1ccc(O)c(-c2ncc(-c3ccccc3O)o2)c1 [Compound 4, 2-(2′,5′-dihydroxyphenyl)-5-(2″-hydroxyphenyl)oxazole] | 3.74 ± 1.47 µM | 6.2 µM | 6.2 ± 4.23 µM | 0.7924 | 55.4 ± 11.7 µM | 
5 | COc1ccc(OC)c(-c2ncc(-c3ccccc3OC)o2)c1 [Compound 5] |  |  |  | 2.301 |  | > 200 µM
6 | CC(=O)Oc1ccc(OC(C)=O)c(-c2ncc(-c3ccccc3OC(C)=O)o2)c1 [Compound 6] |  | 13.4 µM |  | 1.127 |  | 13.4 µM
7 | Oc1ccc(O)c(-c2cnc(-c3ccccc3)o2)c1 [Compound 7, 2-phenyl-5-(2″,5″-hydroxyphenyl)oxazole] | 1.65 ± 0.72 µM | 3.85 µM | 3.85 ± 1.87 µM | 0.5852 | 54.1 ± 11 µM | 
8 | COc1ccc(OC)c(-c2cnc(-c3ccccc3)o2)c1 [Compound 8] |  |  |  | 2.301 |  | > 200 µM
9 | CC(=O)Oc1ccc(OC(C)=O)c(-c2cnc(-c3ccccc3)o2)c1 [Compound 9] | 1.27 ± 0.51 µM | 3.38 µM | 3.38 ± 1.46 µM | 0.5284 | 56.7 ± 18.4 µM | 
10 | Oc1ccc(O)c(-c2cnc(-c3cc(O)ccc3O)o2)c1 [Compound 10, 2-(2′,5′-dihydroxyphenyl)-5-(2″,5″-dihydroxyphenyl)oxazole] | 4.94 ± 2.15 µM | 12.6 µM | 12.7 ± 7.63 µM | 1.102 | 39.5 ± 7.45 µM | 
11 | COc1ccc(OC)c(-c2cnc(-c3cc(OC)ccc3OC)o2)c1 [Compound 11] |  | 15 µM |  | 1.177 |  | 15 µM
12 | CC(=O)Oc1ccc(OC(C)=O)c(-c2cnc(-c3cc(OC(C)=O)ccc3OC(C)=O)o2)c1 [Compound 12] | 4.7 ± 1.69 µM | 10.2 µM | 10.2 ± 4.09 µM | 1.01 | 67.8 ± 1.39 µM | 
13 | COc1ccccc1-c1cnc(-c2ccccc2OC)o1 [Compound 13] |  |  |  | 2.301 |  | > 200 µM
14 | COc1cccc(-c2ncc(-c3ccc4ccccc4c3)o2)c1OC [Compound 14] |  | 62.4 µM |  | 1.795 |  | 62.4 µM
15 | COc1cccc(-c2cnc(-c3cccc(OC)c3OC)o2)c1 [Compound 15] |  | 74.8 µM |  | 1.874 |  | 74.8 µM
16 | COc1ccc(-c2cnc(-c3cccc(OC)c3OC)o2)cc1 [Compound 16] |  |  |  | 1.579 |  | 37.9 µM
17 | COc1ccc(OC)c(-c2cnc(-c3cccc(OC)c3OC)o2)c1 [Compound 17] |  |  |  | 2.301 |  | > 200 µM
18 | COc1cccc(-c2ncc(-c3ccc(OC)c(OC)c3OC)o2)c1OC [Compound 18] |  | 51.1 µM |  | 1.708 |  | 51.1 µM
19 | COc1cccc(-c2cnc(-c3cccc(OC)c3)o2)c1 [Compound 19] |  |  |  | 1.665 |  | 46.3 µM
20 | COc1ccc(-c2cnc(-c3ccc(OC)cc3)o2)cc1 [Compound 20] |  |  |  | 2.301 |  | > 200 µM
21 | COc1ccc(-c2ncc(-c3ccccc3OC)o2)c(OC)c1 [Compound 21] |  | 19.3 µM |  | 1.286 |  | 19.3 µM

Row | Compound | IC50 (P. falciparum K1) | IC50 (P. falciparum 3D7; [2]) | IC50 (P. falciparum 3D7; [3]) | logIC50 (P. falciparum 3D7; Table S2) | CC50 [1] | IC50 (P. falciparum 3D7; [4])
22 | COc1ccccc1-c1cnc(-c2c(OC)cccc2OC)o1 [Compound 22] |  |  |  | 1.426 |  | 26.7 µM
23 | COc1cccc(-c2cnc(-c3cccc(OC)c3OC)o2)c1OC [Compound 23] |  | 12.7 µM |  | 1.104 |  | 12.7 µM
24 | COc1cccc(-c2cnc(-c3ccc(OC)c(OC)c3OC)o2)c1OC [Compound 24] |  |  |  | 1.832 |  | 68 µM
25 | COc1cccc(-c2ncc(-c3ccccc3)o2)c1OC [Compound 25] |  |  |  | 1.476 |  | 29.9 µM
26 | COc1cccc(-c2ncc(-c3ccccc3OC)o2)c1 [Compound 26] |  |  |  | 2.301 |  | > 200 µM
27 | COc1ccc(OC)c(-c2cnc(-c3ccccc3OC)o2)c1 [Compound 27] |  |  |  | 2.027 |  | 106 µM
28 | COc1cccc(-c2ncc(-c3c(OC)cccc3OC)o2)c1OC [Compound 28] |  |  |  | 2.096 |  | 125 µM
29 | COc1ccc(-c2cnc(-c3cccc(OC)c3OC)o2)c(OC)c1 [Compound 29] |  | 24.9 µM |  | 1.397 |  | 24.9 µM
30 | COc1cccc(-c2ncc(-c3ccccc3C)o2)c1OC [Compound 30] |  |  |  | 2.301 |  | > 200 µM
31 | COCOc1ccccc1-c1cnc(-c2cccc(OC)c2OC)o1 [Compound 33] |  | 18.2 µM |  | 1.26 |  | 18.2 µM
32 | CCOc1ccccc1-c1cnc(-c2cccc(OC)c2OC)o1 [Compound 34] |  |  |  | 2.301 |  | > 200 µM
33 | CCCOc1ccccc1-c1cnc(-c2cccc(OC)c2OC)o1 [Compound 35] |  | 27.7 µM |  | 1.442 |  | 27.7 µM
34 | COc1cccc(-c2ncc(-c3ccccc3[N+](=O)[O-])o2)c1OC [Compound 36] |  | 39.6 µM |  | 1.598 |  | 39.6 µM
35 | COc1cccc(-c2ncc(-c3ccccc3N)o2)c1OC [Compound 37] |  |  |  | 1.564 |  | 36.6 µM
36 | COc1cccc(-c2ncc(-c3ccccc3N(C)C)o2)c1OC [Compound 38] |  | 54.2 µM |  | 1.734 |  | 54.2 µM
37 | COc1cccc(-c2ncc(-c3ccccc3NC(C)=O)o2)c1OC [Compound 39] |  |  |  | 2.301 |  | > 200 µM
38 | COc1ccccc1-c1cnc(-c2cccc(OC)c2OC)s1 [Compound 41] |  |  |  | 1.189 |  | 15.5 µM
39 | COc1ccccc1-c1nnc(-c2cccc(OC)c2OC)o1 [Compound 43] |  | 16.9 µM |  | 1.228 |  | 16.9 µM
40 | COc1ccccc1-c1nnc(-c2cccc(OC)c2OC)s1 [Compound 45] |  |  |  | 2.301 |  | > 200 µM
41 | COc1ccccc1-c1coc(-c2cccc(OC)c2OC)n1 [Compound 46] |  |  |  | 1.65 |  | 44.7 µM
